The results in this text go back to US8835392B2, “Mimetic peptides and the use thereof in the form of 20S, 26S and immunoproteasome inhibitors” (Technische Universität, priority 2005, dated 2014).

“Also recorded” adds a separate entry of the source. Where a SMILES comes first, the peptide text is derived from it. The star is where a group is joined. Cbz = O=C(OCc1ccccc1)*; Boc = CC(C)(C)OC(=O)*; OtBu = CC(C)(C)O*

For data set [1], the target named is T1, 20S proteasome β2 trypsin-like activity (VGR-MCA) (Homo sapiens, UniProt P49720+Q99436).
T1 construct: Proteasomes were isolated from red blood cells; from tissue; host or cells: red blood cells
The experiment in a line: Protease assay, trypsin-like activity of isolated 20S proteasomes. Particulars: isolated 20S proteasome; VGR-MCA 50 μM; 15 min pre-incubation; read-out: IC50 β2 Trypsin-like (R). In kind it is biochemical. The procedure: (§1) Proteasomes were isolated from red blood cells. Cells were lysed with DTT (1 mM), and the stroma-free supernatant was loaded on DEAE-sepharose (Toyopearls). Proteasome was eluted with an NaCl-gradient in TEAD (20 mM TrisCl pH 7.4, 1 mM EDTA, 1 mM azide, 1 mM DTT) of 100 to 300 mM NaCl. Proteasome was concentrated using ammonium sulfate-precipitation (between 40 and 70% saturation) and was separated in a 10-40% sucrose-gradient through centrifugation at 40.000 rpm for 16 hours (SW40; L7, Beckman & Coulter). Finally, the proteasomes were purified on a MonoQ-column and eluted with an NaCl-gradient at about 280 mM NaCl. The fractions containing purified proteasome were dialysed against 50 mM NaCl in TEAD and stored on ice. The purity was determined using SDS-PAGE.
(§2) Suc-LLVY-AMC, Z-VGR-AMC and LLE-AMC (BACHEM, Calbiochem) was used, in order to determine the chymotrypsin-like, trypsin-like or caspase-like (post-acidic)-activities of the proteasome. Substrate was incubated with proteasome at 37° C. in assay-buffer (20 mM Tris/Cl, pH 7.2, 1 mM EDTA, 1 mM DTT) for one hour. 100 ng proteasome was pre-incubated with 0.01-10 μM of the inhibitor for […]. The reaction was started by the addition of substrate (50 μM). The AMC as released was detected using fluorescence emission at 460 nm (excitation at 390 nm) using a TECAN-fluorimeter. The activity was calculated in fluorescence-units. The inhibition is depicted by IC50-values.
(§3) The effects thereof were compared with the one of the commonly used proteasomal inhibitor 3 (MG132). The chymotrypsin-like (Suc-LLVY-AMC), the trypsin-like (Bz-VGR-AMC), and the caspase-like (Z-LLE-AMC)-activities of 20S proteasomes were determined following incubation for one hour at 37° C.
(§4) The IC50-values form the inhibition of the proteasome were calculated at increasing concentrations of the inhibitor. The samples were pre-incubated for 15 min in ice. The assay was started through the addition of 50 μM of one of the following fluorogenic peptide substrates:
(§5) The release of MCA was determined at 460 nm emission (excitation 390 nm). The IC50-values as calculated for MG132 served as controls.

The test system of the next data set is Fibroblasts. The experiment in a line: Viability of fibroblasts (control). In kind it is cell-based. As to conditions: Fibroblast, identical conditions (72 h), read-out: concentration for 50% reduction of the viability.
In data set [2] the target is T2, 20S proteasome β1 caspase-like activity (LLE-MCA) (Homo sapiens, UniProt P28072+Q99436).
T2 construct: Proteasomes were isolated from red blood cells; from tissue; host or cells: red blood cells
Briefly: Protease assay, caspase-like activity of isolated 20S proteasomes. As to conditions: isolated 20S proteasome; LLE-MCA 50 μM; 15 min pre-incubation; read-out: IC50 β1 Caspase-like (E). In kind it is biochemical. The procedure: as §1, §2, §3, §4, §5

Data set [3] has as its system Human melanoma cells (MeWo). The experiment in a line: Cell cycle arrest in MeWo cells, propidium iodide FACS. The class given is cell-based. As to conditions: 24 hours. Here is the method: (§6) A, Human melanoma cells (MeWo) were treated with increasing concentrations of the compounds 15 or 3 (MG132) for 72 hours. The viability of the cells after the treatment with compound 15 (-♦-) and with MG132 (-□-) was detected by a crystal-violet-staining. B and C, MeWo cells were co-cultivated with the compounds 15 and 3 (MG132) for 24 hours. The cells were subsequently fixed in 70% ethanol, and treated with RNAse A. The DNA was stained with propidium iodide (5 μg/ml), and analysed by means of FACS (FACS Calibur flow cytometer; Beckton Dickinson). The statistical significance was detected by the chi-square-test. The relative distribution of the cells that were present in the G1-(black), in the S-(white) or in the G2 phase (hatched) of the cellular cycle is shown for both compounds as examined (15 in B and MG132 in C).
Human melanoma cells (MeWo) were with the compounds 15 and 3 (MG132) for 24 hours co-cultivated. The cells were washed with PBS, in 70% ethanol fixed and subsequently treated with RNAse A. The DNA was stained with propidium iodide (5 μg/ml) and analysed by means of flow-cytometry (FACS Calibur flow cytometer; Beckton Dickinson). The relative dispersion of the cells that were present in different phases of the cell cycle, could thus be detected. […] The statistical significance was detected by the Chi-square test.

The test system of data set [4] is Human melanoma cells (MeWo). The experiment in a line: Viability of human melanoma cells (MeWo), crystal violet-staining. Particulars: Homo sapiens, 72 h, read-out: concentration at rate of survival of 50% of the cells. The class given is cell-based. Here is the method: as §6
Human melanoma cells (MeWo) were incubated for 72 h with different concentrations of the inhibitor 15 and 28, and the viability of the cells was determined by means of crystal violet-staining (FIG. 8).

The next data set deals with T3, 20S proteasome.
T3 construct: Proteasomes were isolated from red blood cells; from tissue; host or cells: red blood cells
Briefly: Inhibition of the different proteasomal activities, summary statements. In kind it is biochemical. As to conditions: isolated proteasomes, specific substrates. The procedure: The specific inhibition of a single catalytic site is of specific interest for the development of drugs. Thus, the inhibition of the different proteasomal activities of the proteasome was analysed (see also example 6). The different cleavage-preferences of the proteasome were determined by the specific substrate for the hydrophobic (chymotrypsin-like), the trypsine-like and the caspase-like activities of isolated proteasomes.
as §2, §3

The target of data set [5] is T4, 20S proteasome β5 chymotrypsin-like activity (GLL-MCA) (Homo sapiens, UniProt P20618+P28074).
T4 construct: Proteasomes were isolated from red blood cells; from tissue; host or cells: red blood cells
Briefly: Protease assay, chymotrypsin-like activity of isolated 20S proteasomes (GLL substrate). Particulars: isolated 20S proteasome; GLL-MCA 50 μM; 15 min pre-incubation; read-out: IC50 β5 Chym.-like (L). The class given is biochemical. The procedure: as §1, §2, §4, §5

Data set [6] concerns the target T5, proteasomal activity in HeLa-cells (Homo sapiens, UniProt P20618+P28074).
T5 construct: endogenous in cells; host or cells: HeLa
Briefly: Intracellular inhibition of proteasomes in cultivated HeLa-cells. The class given is cell-based. As to conditions: for reduction of the specific proteasomal activity in cells: HeLa cells, 1 μM. Here is the method:
A, HeLa-cells were cultivated were 24 hours in the presence of the inhibitor. The protein concentration was determined in accordance with the cellular lysis according to Bradford in order to normalise the proteasomal activities to the different amounts of cells. Subsequently Complete (Roche) was added to all lysates, and the proteasomal activity was determined through the hydrolysis of Suc-LLVY-AMC. B, HeLa-cells was incubated with 1 μM of compound 15 for 2, 4, 6 and 24 hours. Cells were lysed, and proteins were separated through SDS-PAGE on a 10% gel, blotted to a PVDF-membrane. The accumulation of the poly-ubiquitinylated proteins was detected in a Western blot by an anti-ubiquitine-antibody (DAKO). C, HeLa-Cells were treated with increasing concentrations of the inhibitor 15, 25, 26, 27, and 28 for 24 hours (lane 1: without inhibitor; lane 2: 10 nM; lane 3: 100 nM and lane 4: 1 μM of the given inhibitor). Cells were lysed, proteins were separated on 15% gels, and the accumulation of the poly-ubiquitinylated proteins was controlled through Western blot.
HeLa-Cells were cultivated in RPMI, supplemented with 10% FCS and penicillin/streptomycin, at 5% CO2. Inhibitors were administered from 100×-stock solutions (in DMSO) at the final concentrations as indicated, and incubated with the cells for at least 20 hours.
Cultivated cells (HeLa) were harvested lysed and with 0.1% NP40 in TEAD in the presence of the commercially available protease-inhibitor-mixture Complete (Roche). The proteasomal activity was measured in 10 μl of the lysate using Suc-LLVY-AMC as a substrate. The protein content was quantified by means of Bradford (Protein assay; BioRad).
An application on cell cultures or animals requires that the concentrations of the inhibitors are chose as low as required. The specific proteasomal activity was reduced to a value of below 50% in cells that were treated with 1 μM of the compounds 15, 22, 25, 26, or 28, respectively (FIG. 6A).

Data set [7] deals with T6, 20S proteasome β5 chymotrypsin-like activity (Suc-LLVY-AMC) (Homo sapiens, UniProt P20618+P28074).
T6 construct: Proteasomes were isolated from red blood cells; from tissue; host or cells: red blood cells
Briefly: Protease assay, chymotrypsin-like activity of isolated 20S proteasomes (LLVY substrate). The class given is biochemical. As to conditions: isolated 20S proteasome; LLVY-MCA 50 μM; 15 min pre-incubation; read-out: IC50 β5 Chymotrypsin-like (Y). Here is the method:
as §1, §2
The chymotrypsin-like (Suc-LLVY-AMC), the trypsin-like (Bz-VGR-AMC), and the caspase-like (Z-LLE-AMC)-activities of 20S proteasomes were determined following incubation for one hour at 37° C.
as §4, §5

The test system of data set [8] is caspase 3/7 activation in HeLa-cells. The experiment in a line: Apoptosis-assay, caspase 3/7-activity (Apo-One). In kind it is cell-based. As to conditions: 1 μM, 20 hours. Here is the method: HeLa-cells that were cultivated for 20 hours in the presence of the given inhibitor, were subsequently incubated for 2 hours with caspase-substrate (Apo-One; Promega). The activation of caspases 3/7 was measured at 538 nm (excitation at 485 nm). Treatment of the cells with TNFα or with MG132 served as control.
For this, 10,000 HeLa-cells pro well were seeded in a 96-well-plate, and co-cultivated for 20 hours with 1 μM of the inhibitors 7, 8, 11, 13-16, 18, 20-23 and 25-28. The induction of apoptosis was determined by measuring of the caspase 3/7-activity (Apo-One®-Assay, Promega).

As for `CC(C)C[C@@H](C=O)NC(=O)[C@H](CC(C)C)NC(=O)[C@H](CC(C)C)NC(=O)OCc1ccccc1` [Compound 3, reference compound] (Cbz-Leu-Leu-Leu-aldehyde), the IC50 was 9.22 µM in data set [1], 0.5 to 1 µM in the data set on Fibroblasts, 2.29 µM in [2] and 0.035 µM in data set [4]. For the same compound, the “concentration giving arrest of the cell cycle in the G2 phase” value in data set [3] came to 100 nM.
In the case of `CC(C)C[C@@H](C=O)NC(=O)[C@H](CC(=O)OC(C)(C)C)NC(=O)[C@H](CC(C)C)NC(=O)OC(C)(C)C` [Compound 13] (Boc-Leu-Asp(OtBu)-Leu-aldehyde), in the data set on 20S proteasome, the “which proteasomal activities are inhibited (site selectivity)” value is reported as “inhibited all of the proteasomal hydrolytic activities”. For the same compound, the IC50 in data set [5] is 0.102 µM; in data set [2], 0.098 µM. Besides, in data set [6], the “reduction of the specific proteasomal activity in cells” value is “markedly reduction”.
`CC(C)C[C@@H](C=O)NC(=O)[C@H](CC(=O)O)NC(=O)[C@@H](N)CC(C)C` [Compound 14] (H-Leu-Asp-Leu-aldehyde): the IC50 in data set [7], in data set [1], in data set [5] and in data set [2] was greater than 10 µM each time.
With `CC(C)C[C@H](NC(=O)OCc1ccccc1)C(=O)N[C@@H](CC(C)C)C(=O)N[C@@H](CC(C)C)C(O)C#Cc1ccccc1` (stereo partly drawn) [Compound 21], the “which proteasomal activities are inhibited (site selectivity)” value in the data set on 20S proteasome is recorded as “exclusive reduction of the chymotryptic activity”. Also, the IC50 in data set [7] was 1.3 µM; in data set [5], greater than 10 µM. Besides, the “reduction of the specific proteasomal activity in cells” value in [6] was “very weak inhibition”.
Consider `CC(C)C[C@H](NC(=O)OCc1ccccc1)C(=O)N[C@@H](CC(C)C)C(=O)N[C@@H](CC(C)C)C(=O)C(=O)NCc1ccccc1` [Compound 26], for which, in the data set with 20S proteasome, the “which proteasomal activities are inhibited (site selectivity)” value was “inhibited the chymotryptic and the caspase-like sites”. Also, the IC50 in [7] came out at 0.441 µM; in data set [2], 1.72 µM. The “induction of apoptosis (activation of caspase 3 and 7)” value in [8] was “beginning apoptosis; also recorded: strong induction of apoptosis”. In addition, the membrane-permeation result in [6] (cultivated cells) is “membrane-permeation”. Also, the “stability during the incubation periods” value in data set [6] (cultivated cells) is given as “sufficient stability”. The “proteasomal activity reduced to” value in [6] (cultivated cells, remaining activity) is reported as 10%.
